Counter-ions that a name gives are not always drawn.
Assay: in vitro
Conditions: rat, gh3-tre-luc cells, AC50 (uM) modified / 1000
Work on `C[C@@H](O)[C@H]1C(=O)N2C(C(=O)O)=C([C@H]3CCCO3)S[C@H]12` [Fropenem] yielded a CC50 at 24 h greater than 50 µM.
`CCC(C)c1cc([N+](=O)[O-])cc([N+](=O)[O-])c1OC(=O)OC(C)C` (stereo not shown) [Dinobuton] showed a CC50 at 24 h of 42.5 µM.
Molecule `CCC(=O)CC` [3-Pentanone] has a CC50 at 24 h greater than 90 µM.
`CSCC[C@H](NC(=O)[C@H](Cc1ccc(OS(=O)(=O)O)cc1)NC(=O)[C@@H](N)CC(=O)O)C(=O)NCC(=O)N[C@@H](Cc1c[nH]c2ccccc12)C(=O)N[C@@H](CCSC)C(=O)N[C@@H](CC(=O)O)C(=O)N[C@@H](Cc1ccccc1)C(N)=O` [Sincalide] gave a CC50 at 24 h greater than 50 µM.
For `CCN1CCN(C(=O)N[C@@H](C(=O)N[C@@H]2C(=O)N3C(C(=O)O)=C(CSc4nnnn4C)CS[C@H]23)c2ccc(O)cc2)C(=O)C1=O` [Cefoperazone sodium], the CC50 at 24 h was greater than 50 µM.
Work on `CC(=O)CC(c1ccccc1)c1c(O)c2ccccc2oc1=O` (stereo not shown) [Warfarin] yielded a CC50 at 24 h greater than 90 µM.
With `O=c1[nH]c(=O)n([C@H]2C[C@H](O)[C@@H](CO)O2)cc1F` [Floxuridine] the CC50 at 24 h was greater than 50 µM.
In the case of `Cc1ccccc1` [Toluene], the CC50 at 24 h is reported as greater than 90 µM.
Work on `CC(CO)(CO)CO` [2-(Hydroxymethyl)-2-methyl-1,3-propanediol] yielded a CC50 at 24 h greater than 90 µM.
`Oc1ccc2ccc3cccc4ccc1c2c34` [1-Hydroxypyrene] showed a CC50 at 24 h greater than 90 µM.
With `CC(=O)Nc1ccc(C)cc1C` [N-(2,4-Dimethylphenyl)acetamide] the CC50 at 24 h was greater than 90 µM.
Work on `CCCC[P+](C)(CCCC)CCCC` [Tributylmethylphosphonium methyl sulfate] yielded a CC50 at 24 h greater than 90 µM.
`Oc1ccc(Cl)c2cccnc12` [Cloxyquin] showed a CC50 at 24 h of 7.71 µM.
Molecule `O=C(OCCOCCOCCOC(=O)c1ccccc1)c1ccccc1` [Triethylene glycol dibenzoate] has a CC50 at 24 h greater than 90 µM.
Work on `CN[C@]1(c2ccccc2Cl)CCCCC1=O` [(S)-Ketamine] yielded a CC50 at 24 h greater than 50 µM.
Molecule `CCCN1C[C@H](CSC)C[C@@H]2c3cccc4[nH]cc(c34)C[C@H]21` [Pergolide methanesulfonate] has a CC50 at 24 h greater than 50 µM.
For `CCCCCCCCSCCO` [2-Hydroxyethyl octyl sulfide], the CC50 at 24 h was greater than 90 µM.
`Nc1cc(C(=O)O)ccc1Cl` [3-Amino-4-chlorobenzoic acid] showed a CC50 at 24 h greater than 90 µM.
Work on `Nc1ccc2c(c1)C(=O)c1ccccc1C2=O` [2-Aminoanthraquinone] yielded a CC50 at 24 h greater than 90 µM.
With `Cc1ccc(C(=O)c2ccc(CC(=O)O)n2C)cc1` [Tolmetin sodium dihydrate] the CC50 at 24 h was greater than 20 µM.
With `CCCC(=O)N1CCCN(c2nc(N)c3cc(OC)c(OC)cc3n2)CC1` [Bunazosin hydrochloride] the CC50 at 24 h was greater than 50 µM.
`CC(=O)Nc1cccc(O)c1` [3-Acetamidophenol] showed a CC50 at 24 h greater than 90 µM.
`CCCCCCCCCCCl` [1-Chlorodecane] gave a CC50 at 24 h greater than 90 µM.
For `O=C(NC(=O)c1c(F)cccc1F)Nc1ccc(Oc2ccc(C(F)(F)F)cc2Cl)cc1F` [Flufenoxuron], the CC50 at 24 h was 34.6 µM.
Molecule `CC(C)(c1cc(Br)c(OCC(Br)CBr)c(Br)c1)c1cc(Br)c(OCC(Br)CBr)c(Br)c1` (stereo not shown) [Tetrabromobisphenol A-bis(2,3-dibromopropyl ether)] has a CC50 at 24 h greater than 50 µM.
Molecule `CCOC(=O)[C@H](CCc1ccccc1)N[C@@H](C)C(=O)N1Cc2ccccc2C[C@H]1C(=O)O` [Quinapril hydrochloride] has a CC50 at 24 h greater than 90 µM.
In the case of `Cc1ccc2cccnc2c1` [7-Methylquinoline], the CC50 at 24 h is reported as greater than 90 µM.
Molecule `CCOC(=O)c1c(N)sc2c1CCN(Cc1ccccc1)C2` [Tinoridine] has a CC50 at 24 h greater than 50 µM.
In the case of `CC=C1CC2C=CC1C2` (stereo not shown) [5-Ethylidene-2-norbornene], the CC50 at 24 h is reported as greater than 90 µM.
Work on `CCc1cc(OC)c(C[C@H](C)N)cc1OC` [(+)-2,5-Dimethoxy-4-ethylamphetamine hydrochloride] yielded a CC50 at 24 h of 35.7 µM.
With `O=S(=O)(Oc1ccc(Cl)cc1Cl)c1ccccc1` [2,4-Dichlorophenyl benzenesulfonate] the CC50 at 24 h was greater than 90 µM.
For `CCOC(=O)C(SP(=S)(OC)OC)c1ccccc1` (stereo not shown) [Phenthoate], the CC50 at 24 h was greater than 90 µM.
With `Cc1ccc2nc(N)[nH]c(=O)c2c1Sc1ccncc1` [Nolatrexed dihydrochloride] the CC50 at 24 h was greater than 50 µM.
With `CC1(COc2ccc(CC3SC(=O)NC3=O)cc2)CCCCC1` (stereo not shown) [Ciglitizone] the CC50 at 24 h was 26.4 µM.
With `C/C=C(C)/C=C/C=C(C)C` [2,6-Dimethyl-2,4,6-octatriene] the CC50 at 24 h was greater than 90 µM.
With `OCCc1ccccn1` [2-(Pyridin-2-yl)ethanol] the CC50 at 24 h was greater than 90 µM.
`CCOC(=O)CC1(C)OCC(C)O1` (stereo not shown) [Ethyl 2,4-dimethyl-1,3-dioxolane-2-acetate] showed a CC50 at 24 h greater than 90 µM.
`CN(C)C(=O)CNC(=O)Cc1ccccc1` [N,N-Dimethyl-2-(2-phenylacetamido)acetamide] showed a CC50 at 24 h greater than 50 µM.
`CCCCCc1ccc(N)cc1` [4-Pentylaniline] showed a CC50 at 24 h greater than 90 µM.
In the case of `CCCCCCCCCCCCCCBr` [1-Bromotetradecane], the CC50 at 24 h is reported as greater than 100 µM.
`CC1(C)O[C@@H]2C[C@H]3[C@@H]4CCC5=CC(=O)C=C[C@]5(C)[C@@]4(F)[C@@H](O)C[C@]3(C)[C@]2(C(=O)CO)O1` [Triamcinolone acetonide] showed a CC50 at 24 h greater than 90 µM.
`COc1ccc(C(=O)N2CCCC2=O)cc1` [Aniracetam] showed a CC50 at 24 h greater than 50 µM.
`CC(O)(CS(=O)(=O)c1ccc(F)cc1)C(=O)Nc1ccc(C#N)c(C(F)(F)F)c1` (stereo not shown) [Bicalutamide] gave a CC50 at 24 h greater than 50 µM.
For `CN1[C@@H]2CC[C@H]1C[C@@H](OC(=O)c1c[nH]c3ccccc13)C2` [Tropisetron], the CC50 at 24 h was 23.8 µM.
In the case of `CC(C=O)Cc1ccc(C(C)C)cc1` (stereo not shown) [Cyclamen aldehyde], the CC50 at 24 h is reported as greater than 90 µM.
`Sc1nc(S)nc(S)n1` [Trisodium 2,4,6-trithioxo-1,3,5-triazinane-1,3,5-triide] gave a CC50 at 24 h greater than 50 µM.
Work on `O=C1OC(c2cc(I)c(O)c(I)c2)(c2cc(I)c(O)c(I)c2)c2ccccc21` [Iodophthalein] yielded a CC50 at 24 h of 36.2 µM.
Molecule `C[C@@H]1CN(c2c(F)c(F)c3c(=O)c(C(=O)O)cn(C4CC4)c3c2F)C[C@H](C)N1` [Orbifloxacin] has a CC50 at 24 h greater than 50 µM.
`CCc1nc(C)c[nH]1` [2-Ethyl-4-methyl-1H-imidazole] gave a CC50 at 24 h greater than 90 µM.
For `NC(=O)C(=O)N/N=C/c1ccc([N+](=O)[O-])o1` [Nifuraldezone], the CC50 at 24 h was 24.8 µM.
`COC(C)(OC)OC` [1,1,1-Trimethoxyethane] showed a CC50 at 24 h greater than 90 µM.
Molecule `COc1ccc(/C=C/C(=O)c2ccc(OC)cc2OC)cc1` [Metochalcone] has a CC50 at 24 h of 46.1 µM.
`CCC(C)(CCCC(C)C)OC(C)=O` (stereo not shown) [3,7-Dimethyloctan-3-yl acetate] showed a CC50 at 24 h greater than 90 µM.
`CC(C)CCCCCOC(=O)CCS` [Isooctyl 3-mercaptopropionate] gave a CC50 at 24 h greater than 90 µM.
Molecule `CCC1(c2ccccc2)C(=O)NC(=O)N(C(=O)c2ccccc2)C1=O` (stereo not shown) [Benzobarbital] has a CC50 at 24 h greater than 50 µM.
`N#CCCCC(C#N)CCC#N` (stereo not shown) [1,3,6-Hexanetricarbonitrile] gave a CC50 at 24 h greater than 90 µM.
`CC(C)(O)c1ccc(CNC(=O)c2cccnc2Oc2ccc3nonc3c2)cc1` [CP-612372] showed a CC50 at 24 h greater than 90 µM.
`CC1CC(C)C(=O)C1=O` (stereo not shown) [3,5-Dimethyl-1,2-cyclopentanedione] showed a CC50 at 24 h greater than 90 µM.
In the case of `C=CC(C)CCCC(C)(C)O` (stereo not shown) [1,1,5-Trimethyl-6-heptenol], the CC50 at 24 h is reported as greater than 90 µM.
Work on `CN(C)Cc1cc(C(C)(C)C)c(O)c(C(C)(C)C)c1` [2,6-Di-tert-butyl-4-[(dimethylamino)methyl]phenol] yielded a CC50 at 24 h of 50.7 µM.
`CCCC1COC(Cn2cncn2)(c2ccc(Cl)cc2Cl)O1` (stereo not shown) [Propiconazole] gave a CC50 at 24 h of 61 µM.
`CCCCCCCCCCCCCCCCCC[N+](C)(C)Cc1ccccc1` [N,N-Dimethyl-N-benzyl-N-octadecylammonium chloride] showed a CC50 at 24 h of 11.4 µM.
In the case of `OCC1(CO)COC(C(Cl)(Cl)Cl)OC1` [Penthrichloral], the CC50 at 24 h is reported as greater than 50 µM.
For `N#CCc1ccccc1` [Benzyl cyanide], the CC50 at 24 h was greater than 90 µM.
For `c1ccc2c(CCC3CCNCC3)c[nH]c2c1` [Indalpine hydrochloride], the CC50 at 24 h was 18.8 µM.
`Cc1ccc([N+](=O)[O-])c(C)c1` [1,3-Dimethyl-4-nitrobenzene] gave a CC50 at 24 h greater than 90 µM.
Work on `CCN(CC)CCNC(=O)COc1ccc(Cl)cc1` [Clofexamide] yielded a CC50 at 24 h greater than 50 µM.
`CC(C)(S)C(=O)N[C@@H](CS)C(=O)O` [Bucillamine] showed a CC50 at 24 h greater than 50 µM.
`CC(C)(C)c1n[nH]c(=S)n(N)c1=O` [4-Amino-6-tert-butyl-3-thioxo-3,4-dihydro-1,2,4-triazin-5(2H)-one] showed a CC50 at 24 h greater than 90 µM.
`CC(=O)c1nccs1` [2-Acetylthiazole] gave a CC50 at 24 h greater than 90 µM.
`CCCCOC(=O)c1ccccc1C(=O)OCC(CC)CCCC` (stereo not shown) [Butyl 2-ethylhexyl phthalate] gave a CC50 at 24 h greater than 90 µM.
For `N[C@@H](C(=O)N[C@@H]1C(=O)N2C(C(=O)O)=C(Cl)CC[C@H]12)c1ccccc1` [Loracarbef monohydrate], the CC50 at 24 h was greater than 50 µM.

Same assay, conditions: rat, gh3-tre-luc cells, AC50 (uM) modified / 1000, Tox21_110001=Tox21_110931; viability, 1 nM T3 present, 24 h
For `Cc1ncsc1CCCl` [Clomethiazole], the CC50 at 24 h was greater than 50 µM.

Same assay, conditions: rat, gh3-tre-luc cells, AC50 (uM) modified / 1000, Tox21_110001=Tox21_111120; viability, 1 nM T3 present, 24 h
Molecule `ClC1=C(Cl)[C@]2(Cl)[C@@H]3[C@H]4C[C@H]([C@@H]5O[C@H]45)[C@@H]3[C@@]1(Cl)C2(Cl)Cl` [Endrin] has a CC50 at 24 h of 34.4 µM.

Same assay, conditions: rat, gh3-tre-luc cells, AC50 (uM) modified / 1000, Tox21_110001=Tox21_112754; viability, 1 nM T3 present, 24 h
Molecule `CCC/C=C/C=C/C(=O)O[C@H]1/C(=C/C(=O)OC)C[C@H]2C[C@H]([C@@H](C)O)OC(=O)C[C@H](O)C[C@@H]3C[C@H](OC(C)=O)C(C)(C)[C@](O)(C[C@@H]4C/C(=C/C(=O)OC)C[C@H](/C=C/C(C)(C)[C@]1(O)O2)O4)O3` [Bryostatin 1] has a CC50 at 24 h of 9.94 µM.

Same assay, conditions: rat, gh3-tre-luc cells, AC50 (uM) modified / 1000, Tox21_110001=Tox21_201145; viability, 1 nM T3 present, 24 h
`CC(C)OC(=O)Cc1ccccc1` [Isopropyl phenylacetate] gave a CC50 at 24 h greater than 90 µM.

Same assay, conditions: rat, gh3-tre-luc cells, AC50 (uM) modified / 1000, Tox21_110001=Tox21_202091; viability, 1 nM T3 present, 24 h
With `Nc1ccc2ccccc2c1` [2-Naphthylamine] the CC50 at 24 h was greater than 90 µM.

Same assay, conditions: rat, gh3-tre-luc cells, AC50 (uM) modified / 1000, Tox21_110001=Tox21_300613; viability, 1 nM T3 present, 24 h
With `ClC1=C(Cl)[C@]2(Cl)[C@@H]3[C@H]4C[C@H]([C@@H]5O[C@H]45)[C@@H]3[C@@]1(Cl)C2(Cl)Cl` [Endrin] the CC50 at 24 h was greater than 90 µM.

Same assay, conditions: rat, gh3-tre-luc cells, AC50 (uM) modified / 1000, Tox21_110001=Tox21_300752; viability, 1 nM T3 present, 24 h
Work on `CCCSP(=O)(OCC)Oc1ccc(Br)cc1Cl` (stereo not shown) [Profenofos] yielded a CC50 at 24 h greater than 50 µM.

Source: paper PMC6792352, “Limited Chemical Structural Diversity Found to Modulate Thyroid Hormone Receptor in the Tox21 Chemical Library” (Environmental Health Perspectives, 2019)
